Experimental data published in patent publication US6541500B1, “Fungicide mixture” (BASF Aktiengesellschaft, priority 1998, dated 2003).

Tested on: mildew of wheat (Erysiphe graminis forma specialis tritici)
Assay: Action against mildew of wheat (wheat seedlings cv. Kanzler, protective spray)
Type: in vivo
Conditions: single active ingredient, wheat leaves, 7 days after inoculation
Experimental: The active compounds, separately or together, are formulated as a 10% strength emulsion in a mixture of 70% by weight of cyclohexanone, 20% by weight of Nekanil® LN (Lutensol® AP6, wetting agent having emulsifying and dispersing action based on ethoxylated alkylphenols) and 10% by weight of Emulphor® EL (Emulan® EL, emulsifier based on ethoxylated fatty alcohols) and diluted with water to the desired concentration.
Evaluation is carried out by determining the infected leaf areas in percent. These percentages are converted into efficacies. The expected efficacies of the mixtures of the active compounds are determined using Colby's formula [R. S. Colby, Weeds 15, 20-22 (1967)] and compared with the observed efficacies.
At an efficacy of 0, the infection level of the treated plants corresponds to that of the untreated control plants; at an efficacy of 100, the treated plants are not infected.
Leaves of wheat seedlings of the cultivar “Kanzler”, grown in pots, were sprayed to run-off point with an aqueous formulation of active ingredient which had been prepared using a stock solution comprising 10% of active ingredient, 63% of cyclohexanone and 27% of emulsifier, and 24 h after the spraycoating had dried on the leaves were dusted with spores of mildew of wheat (Erysiphe graminis forma specialis tritici). The test plants were subsequently placed in climatized chambers at 20-24° C. and 60-90% relative atmospheric humidity for 7 days. The extent of the development of the disease on the leaves was then evaluated visually.
The visually determined values for the percentage of diseased leaf area were converted into efficacies in % of the untreated control. An efficacy of 0 means the same disease level as in the untreated control, an efficacy of 100 means a disease level of 0%. The expected efficacies for the active ingredient combinations were determined using Colby's formula (Colby, S. R. “Calculating synergistic and antagonistic responses of herbicide combinations”, Weeds, 15, pp. 20-22, 1967) and compared with the observed efficacies. […]

Fc1ccc(Oc2ccnc3cc(Cl)cc(Cl)c23)cc1 [I.78, quinoxyfen]
Efficacy in % of the untreated control (conc. 0.06 ppm): 0%
Efficacy in % of the untreated control (conc. 0.25 ppm): 0%
Efficacy in % of the untreated control (conc. 1 ppm): 33%
